Holding throughout (experiment): Postemergence herbicidal activity, greenhouse, visual injury
Format in all cases: in vivo

Assay [1] relates to barnyardgrass (Echinochloa crus-galli, ECHCG). The settings on record: post-emergence, read-out: Effect (% visual injury) Obs. The protocol: (§1) The plants were grown for 7-36 days (d) in a greenhouse with an approximate 14-hour (h) photoperiod which was maintained at about 23° C. during the day and 22° C. during the night. Nutrients and water were added on a regular basis and supplemental lighting was provided with overhead metal halide 1000-Watt lamps as necessary. The plants were employed for testing when they reached the second or third true leaf stage.
(§2) Spray solutions of the experimental compound mixtures were prepared by adding the stock solutions to the appropriate amount of dilution solution to form a 12 mL spray solution in two-way combinations. […] Control plants were sprayed in the same manner with the solvent blank. Application rates for component (a) are in g ae/ha, and application rates for component (b) are in g ai/ha.
(§3) The treated plants and control plants were placed in a greenhouse as described above and watered by sub-irrigation to prevent wash-off of the test compounds. After 20-22 d, the condition of the test plants as compared with that of the control plants was determined visually and scored on a scale of 0 to 100 percent where 0 corresponds to no injury and 100 corresponds to complete kill. […] The Colby method was used to determine the herbicidal effects expected from the mixtures.

Assay [2] has as its system giant foxtail (Setaria faberi, SETFA). Conditions: post-emergence, read-out: Effect (% visual injury) Obs. The protocol: as §1, §2, §3
For assay [3], the system named is grain sorghum (Sorghum vulgare, SORVU). Conditions: post-emergence, read-out: Effect (% visual injury) Obs. The method, then: as §1, §2, §3
Assay [4] has as its system large crabgrass (Digitaria sanguinalis, DIGSA). Conditions: post-emergence, read-out: Effect (% visual injury) Obs. The method, then:
as §1, §2, §3

Assay [5] concerns maize (Zea mays, ZEAMX). Conditions: post-emergence, read-out: Effect (% visual injury) Obs. The method, then: as §1, §2, §3
Assay [6] concerns pigweed (Amaranthus retroflexus, AMARE). Conditions: post-emergence, read-out: Effect (% visual injury) Obs. The protocol: as §1, §2, §3
The subject of assay [7] is rice (Oryza sativa, ORYSA). The settings on record: post-emergence, read-out: Effect (% visual injury) Obs. The method, then: as §1, §2, §3
Assay [8] concerns sunflower (Helianthus annuus, HELAN). Conditions: post-emergence, read-out: Effect (% visual injury) Obs. The protocol:
as §1, §2, §3

For assay [9], the system named is velvetleaf (Abutilon theophrasti, ABUTH). Conditions: post-emergence, read-out: Effect (% visual injury) Obs. The method, then:
as §1, §2, §3

In assay [10] the test system is wild buckwheat (Polygonum convolvulus, POLCO). Conditions: Fallopia convolvulus, post-emergence, read-out: Effect (% visual injury) Obs. The method, then:
as §1, §2, §3

Assay [11] relates to wild oat (Avena fatua, AVEFA). Conditions: post-emergence, read-out: Effect (% visual injury) Obs. The method, then: as §1, §2, §3
Assay [12] relates to wild pansy (Viola tricolor, VIOTR). The settings on record: post-emergence, read-out: Effect (% visual injury) Obs. The method, then: as §1, §2, §3
For assay [13], the system named is winter wheat (Triticum aestivum, TRZAW). Conditions: post-emergence, read-out: Effect (% visual injury) Obs. The method, then:
as §1, §2, §3

Assay [14] deals with winter rape (Brassica napus, BRSNW). Conditions: post-emergence, read-out: Effect (% visual injury) Obs. The protocol:
(§4) Seeds of the desired test plant species were planted in Sun Gro MetroMix® 306 planting mixture, which typically has a pH of 6.0 to 6.8 and an organic matter content of about 30 percent, in plastic pots with a surface area of 103.2 square centimeters (cm^2). When required to ensure good germination and healthy plants, a fungicide treatment and/or other chemical or physical treatment was applied. The plants were grown for 7-36 days (d) in a greenhouse with an approximate 14-hour (h) photoperiod which was maintained at about 23° C. during the day and 22° C. during the night. Nutrients and water were added on a regular basis and supplemental lighting was provided with overhead metal halide 1000-Watt lamps as necessary. The plants were employed for testing when they reached the second or third true leaf stage.
(§5) An emulsifiable concentrate (EC) formulation containing Compound 1 at 100 gai/L was prepared by combining Compound 1 with 1-butyl-2-pyrrolidinone (Tamisolve NxG; 360.5 g/L), benzyl acetate (544.6 g/L) and Agnique MBL 520L surfactant (52.9 g/L). […] The concentrated stock solution was diluted with an aqueous mixture of 1.5% v/v of Agri-dex crop oil concentrate to provide the appropriate application rates. Compound requirements are based upon a 12 milliliter (mL) application volume at a rate of 187 liters per hectare (L/ha). Spray solutions of the experimental compound mixtures were prepared by adding the stock solutions to the appropriate amount of dilution solution to form a 12 mL spray solution in two-way combinations. Formulated compounds were applied to the plant material with an overhead Mandel track sprayer equipped with 8002E nozzles calibrated to deliver 187 L/ha over an application area of 0.503 square meters (m^2) at a spray height of 18 inches (43 centimeters (cm)) above average plant canopy. Control plants were sprayed in the same manner with the solvent blank. Application rates for component (a) are in g ae/ha, and application rates for component (b) are in g ai/ha.
as §3

For assay [15], the system named is common lambsquarters (Chenopodium album L., CHEAL). The settings on record: post-emergence, read-out: Effect (% visual injury) Obs. The method, then:
as §1, §2, §3

The test system of assay [16] is chickweed (Stellaria media, STEME). The settings on record: post-emergence, read-out: Effect (% visual injury) Obs. The method, then:
as §4, §5, §3

Assay [17] deals with blackgrass (Alopecurus myosuroides, ALOMY). The settings on record: post-emergence, read-out: Effect (% visual injury) Obs. The method, then: as §1, §2, §3
The test system of assay [18] is soybean (Glycine max, GLXMA). The settings on record: post-emergence, read-out: Effect (% visual injury) Obs. The protocol:
as §1, §2, §3

Turning to `CCCCOC(=O)[C@@H](C)Oc1ccc(Oc2ccc(C#N)cc2F)cc1` [Cyhalofop-butyl], the pest or weed control at 180 g/ha is 100% in assay [1]; 90% in assay [2]; 85% in [4]; 0% in assay [6]; 0% in assay [9]; 0% in assay [10]. Besides, the results for the pest or weed control at 180 g/ha in [11] and in assay [12] were 90% and 0%, respectively. The plant injury at 180 g/ha in assay [3] came out at 95%; in [5] it was 95%; in [7] it was 0%; in assay [8], 0%; in assay [13] it was 0%; in [14], 0%.

With `COC(=O)C(C)Oc1ccc(Oc2ccc(Cl)cc2Cl)cc1` (centres unmarked) [Diclofop-methyl], the pest or weed control at 280 g/ha in assay [1] turned out to be 100%; in assay [15], 0%; in assay [2], 60%; in assay [6], 0%; in assay [9], 0%; in [10], 0%. Further, the pest or weed control at 280 g/ha in assay [12] and in [16] was 0% throughout. The plant injury at 280 g/ha in [7] worked out at 40%; in assay [8], 0%; in assay [13], 0%; in assay [14], 0%.

Regarding `CCOC(=O)[C@@H](C)Oc1ccc(Oc2nc3ccc(Cl)cc3o2)cc1` [Fenoxaprop-P-ethyl], the pest or weed control at 46 g/ha was 100% in assay [1] (Fenoxaprop-P-ethyl 46 g ai/ha); 0% in assay [17] (Fenoxaprop-P-ethyl 46 g ai/ha); 0% in assay [15] (Fenoxaprop-P-ethyl 46 g ai/ha); 100% in assay [2] (Fenoxaprop-P-ethyl 46 g ai/ha); 100% in assay [4] (Fenoxaprop-P-ethyl 46 g ai/ha); 0% in [9] (Fenoxaprop-P-ethyl 46 g ai/ha). Further, the pest or weed control at 46 g/ha in assay [10] (Fenoxaprop-P-ethyl 46 g ai/ha) stood at 0%; in assay [11] (Fenoxaprop-P-ethyl 46 g ai/ha), 95%; in assay [12] (Fenoxaprop-P-ethyl 46 g ai/ha), 0%. The plant injury at 46 g/ha in assay [5] (Fenoxaprop-P-ethyl 46 g ai/ha) amounted to 100%; in assay [8] (Fenoxaprop-P-ethyl 46 g ai/ha), 0%; in assay [13] (Fenoxaprop-P-ethyl 46 g ai/ha), 0%; in [14] (Fenoxaprop-P-ethyl 46 g ai/ha), 0%.

Consider `CCc1cc(C)cc(CC)c1-c1c(OC(=O)C(C)(C)C)n2n(c1=O)CCOCC2` [Pinoxaden], for which the pest or weed control was 100% in assay [1] (Pinoxaden 30 g ai/ha); 0% in [15] (Pinoxaden 30 g ai/ha); 0% in assay [2] (Pinoxaden 30 g ai/ha); 10% in assay [4] (Pinoxaden 30 g ai/ha); 0% in assay [6] (Pinoxaden 30 g ai/ha); 0% in assay [9] (Pinoxaden 30 g ai/ha). Moreover, the pest or weed control in assay [10] (Pinoxaden 30 g ai/ha) is 0%; in [11] (Pinoxaden 30 g ai/ha) it was 95%; in [12] (Pinoxaden 30 g ai/ha) it was 0%. Also, the plant injury in [3] (Pinoxaden 30 g ai/ha) stood at 100%; in assay [5] (Pinoxaden 30 g ai/ha), 10%; in assay [7] (Pinoxaden 30 g ai/ha), 99%; in assay [18] (Pinoxaden 30 g ai/ha), 0%; in [8] (Pinoxaden 30 g ai/ha), 0%; in [13] (Pinoxaden 30 g ai/ha) it was 0%. Besides, in assay [16] (Pinoxaden 30 g ai/ha), the pest or weed control at 30 g/ha came out at 0%.

Regarding `CCOC(=O)[C@@H](C)Oc1ccc(Oc2cnc3cc(Cl)ccc3n2)cc1` [Quizalofop-P-ethyl], the pest or weed control at 75 g/ha in assay [1] came to 100%; in [17] it was 100%; in assay [15], 0%; in [2], 100%; in assay [4] it was 100%; in [6] it was 0%. Further, the pest or weed control at 75 g/ha in assay [9] worked out at 0%; in [10], 0%; in [11] it was 98%; in [12], 0%. For the same compound, the plant injury at 75 g/ha in assay [3] stood at 100%; in assay [5], 100%; in [7] it was 100%; in assay [18] it was 0%; in assay [8], 0%; in [13], 99%.

The values above are taken from patent US20210145000A1, “WEED CONTROL FROM APPLICATIONS OF PYRIDINE CARBOXYLIC ACID HERBICIDES AND ACETYL CoA CARBOXYLASE (ACCase) INHIBITORS” (Dow AgroSciences LLC, priority 2018, published 2021).
